Source: ChEMBL document CHEMBL1149994, “Total synthesis of novel conduritol related compounds capable of modulating insulin release” (1994)

What was measured:
Rattus norvegicus [1] = organism: Rattus norvegicus; test: Tested for change in release of insulin from pancreatic islets of Sprague-Dawley rats at a concentration of 2.8 mM glucose; assay type: functional
Rattus norvegicus [2] = organism: Rattus norvegicus; test: Tested for change in release of insulin from pancreatic islets of Sprague-Dawley rats at a concentration of 16.7 mM glucose; assay type: functional

SMILES | Change (Rattus norvegicus [1]) [%] | Change (Rattus norvegicus [2]) [%]
O[C@H]1[C@H](O)[C@@H](O)C=C[C@H]1O | 9 | -3
O[C@H]1[C@H](O)[C@H](O)C=C[C@H]1O | 12 | 15
C[C@@]1(O)CC2C(C[C@@]1(C)O)[C@H](O)[C@@H](O)[C@@H](O)[C@@H]2O (stereo partly specified) | -60 | 0
CC(=O)O[C@@H]1[C@H](OC(C)=O)[C@@H](OC(C)=O)C2C(C3CCC2[C@H](O)[C@@H]3O)[C@H]1OC(C)=O (stereo partly specified) | -60 | -23
O[C@@H]1[C@H](O)[C@@H](O)C=C[C@H]1O | 45 | -30
O[C@H]1[C@H](O)[C@@H](O)C=C[C@@H]1O | 41 | 50
O[C@@H]1[C@H](O)[C@H](O)C=C[C@H]1O | 27 | -20
CC(C)[C@@]12CC[C@@]3(C)C4C1[C@H](O[C@H]2[C@@H]3O)C(O)[C@@H](O)[C@@H]4O (single isomer, unassigned) | -60 | -45
O[C@@H]1[C@H](O)[C@H](O)C=C[C@@H]1O | 0 | 0
O[C@@H]1[C@H](O)[C@@H](O)C2C([C@H](O)CC[C@@H]2O)[C@H]1O (stereo partly specified) | -45 | -35
OC1[C@H]2O[C@@H]3C4CCC(C(C42)[C@@H](O)[C@@H]1O)[C@H]3O (single isomer, unassigned) | 0 | -70
O[C@@H]1[C@H](O)[C@@H](O)C2C(C3CCC2[C@H](O)[C@@H]3O)[C@H]1O (stereo partly specified) | -18 | 44
CC(C)[C@@]12CC[C@@](C)(C3C1[C@H](O)[C@@H](O)[C@@H](O)[C@@H]3O)[C@@H](O)[C@H]2O (stereo partly specified) | -30 | -30
